Reference: ChEMBL document CHEMBL1149262, “Monoamine transporter binding, locomotor activity, and drug discrimination properties of 3-(4-substituted-phenyl)tropane-2-carboxylic acid methyl ester isomers” (J Med Chem, 2004)
Activity calls are given as the source filed them. No cut-off for these calls is given here.

Key:
[1] = system: Mus musculus; experiment: Locomotor activity in CD1 mouse assessed as stimulation at 0.3 mg/kg, ip after 1 hr relative to control; assay type: functional; details: route intraperitoneal
[2] = system: Mus musculus; experiment: Locomotor activity in CD1 mouse assessed as stimulation at 0.3 mg/kg, ip after 2 hrs relative to control; assay type: functional; details: route intraperitoneal
[3] = system: Mus musculus; experiment: Locomotor activity in CD1 mouse assessed as stimulation at 0.3 mg/kg, ip after 3 hrs relative to control; assay type: functional; details: route intraperitoneal
[4] = system: Mus musculus; experiment: Locomotor activity in CD1 mouse assessed as stimulation at 0.3 mg/kg, ip after 4 hrs relative to control; assay type: functional; details: route intraperitoneal
[5] = system: Mus musculus; experiment: Locomotor activity in CD1 mouse assessed as stimulation at 1 mg/kg, ip after 1 hr relative to control; assay type: functional; details: route intraperitoneal
[6] = system: Mus musculus; experiment: Locomotor activity in CD1 mouse assessed as stimulation at 1 mg/kg, ip after 2 hrs relative to control; assay type: functional; details: route intraperitoneal
[7] = system: Mus musculus; experiment: Locomotor activity in CD1 mouse assessed as stimulation at 1 mg/kg, ip after 3 hrs relative to control; assay type: functional; details: route intraperitoneal
[8] = system: Mus musculus; experiment: Locomotor activity in CD1 mouse assessed as stimulation at 1 mg/kg, ip after 4 hrs relative to control; assay type: functional; details: route intraperitoneal
[9] = system: Mus musculus; experiment: Locomotor activity in CD1 mouse assessed as stimulation at 0.1 mg/kg, ip after 1 hr relative to control; assay type: functional; details: route intraperitoneal
[10] = system: Mus musculus; experiment: Locomotor activity in CD1 mouse assessed as stimulation at 0.1 mg/kg, ip after 2 hrs relative to control; assay type: functional; details: route intraperitoneal
[11] = system: Mus musculus; experiment: Locomotor activity in CD1 mouse assessed as stimulation at 0.1 mg/kg, ip after 3 hrs relative to control; assay type: functional; details: route intraperitoneal
[12] = system: Mus musculus; experiment: Locomotor activity in CD1 mouse assessed as stimulation at 0.1 mg/kg, ip after 4 hrs relative to control; assay type: functional; details: route intraperitoneal
[13] = system: Mus musculus; experiment: Locomotor activity in CD1 mouse assessed as stimulation at 0.03 mg/kg, ip after 1 hr relative to control; assay type: functional; details: route intraperitoneal
[14] = system: Mus musculus; experiment: Locomotor activity in CD1 mouse assessed as stimulation at 0.03 mg/kg, ip after 2 hrs relative to control; assay type: functional; details: route intraperitoneal
[15] = system: Mus musculus; experiment: Locomotor activity in CD1 mouse assessed as stimulation at 0.03 mg/kg, ip after 3 hrs relative to control; assay type: functional; details: route intraperitoneal
[16] = system: Mus musculus; experiment: Locomotor activity in CD1 mouse assessed as stimulation at 0.03 mg/kg, ip after 4 hrs relative to control; assay type: functional; details: route intraperitoneal
[17] = system: Rattus norvegicus; experiment: Cocaine discrimination in ip dosed CD Albino rat; assay type: functional
[18] = system: Rattus norvegicus; experiment: Drug discrimination effect in CD Albino rat assessed as percent of rat choosing cocaine lever at 0.17 mg/kg, ip; assay type: functional; details: route intraperitoneal
[19] = system: Rattus norvegicus; experiment: Drug discrimination effect in CD Albino rat assessed as percent of rat choosing cocaine lever at 0.3 mg/kg, ip; assay type: functional; details: route intraperitoneal
[20] = system: Mus musculus; experiment: Activity in CD1 mouse assessed as hyperactivity at 1 mg/kg, ip after 4 hrs; assay type: functional, organism-based; design: dose 1 mg/kg
[21] = system: Mus musculus; experiment: Activity in CD1 mouse assessed as stereotypy at 1 mg/kg, ip after 4 hrs; assay type: functional, organism-based; design: dose 1 mg/kg
[22] = system: Mus musculus; experiment: Activity in CD1 mouse assessed as stereotypy at 10 mg/kg, ip after 4 hrs; assay type: functional, organism-based; design: dose 10 mg/kg
[23] = system: Mus musculus; experiment: Activity in CD1 mouse assessed as circling at 10 mg/kg, ip after 4 hrs; assay type: functional, organism-based; design: dose 10 mg/kg
[24] = system: Mus musculus; experiment: Activity in CD1 mouse assessed as stereotypy at 100 mg/kg, ip after 4 hrs; assay type: functional, organism-based; design: dose 100 mg/kg
[25] = system: Mus musculus; experiment: Activity in CD1 mouse assessed as circling at 100 mg/kg, ip after 4 hrs; assay type: functional, organism-based; design: dose 100 mg/kg
[26] = target: Sodium-dependent dopamine transporter (Homo sapiens, UniProt Q01959); experiment: Displacement of [3H]WIN-35428 from DAT
[27] = system: Mus musculus; experiment: Locomotor activity in ip dosed CD1 mouse in peak hour; assay type: functional
[28] = system: Rattus norvegicus; experiment: Drug discrimination effect in CD Albino rat assessed as percent of rat choosing cocaine lever at 0.1 mg/kg, ip; assay type: functional; details: route intraperitoneal
[29] = target: Sodium-dependent serotonin transporter (Homo sapiens, UniProt P31645)
Description: Displacement of [3H]paroxetine from 5HTT

[30] = system: Rattus norvegicus; experiment: Drug discrimination effect in CD Albino rat assessed as percent of rat choosing cocaine lever at 3 mg/kg, ip; assay type: functional; details: route intraperitoneal
[31] = system: Rattus norvegicus; experiment: Drug discrimination effect in CD Albino rat assessed as percent of rat choosing cocaine lever at 5.6 mg/kg, ip; assay type: functional; details: route intraperitoneal
[32] = system: Rattus norvegicus; experiment: Drug discrimination effect in CD Albino rat assessed as percent of rat choosing cocaine lever at 10 mg/kg, ip; assay type: functional; details: route intraperitoneal
[33] = system: Rattus norvegicus; experiment: Drug discrimination effect in CD Albino rat assessed as percent of rat choosing cocaine lever at 17 mg/kg, ip; assay type: functional; details: route intraperitoneal
[34] = system: Rattus norvegicus; experiment: Drug discrimination effect in CD Albino rat assessed as percent of rat choosing cocaine lever at 30 mg/kg, ip; assay type: functional; details: route intraperitoneal
[35] = system: Mus musculus; experiment: Activity in CD1 mouse assessed as slight or intermittent stimulation at 10 mg/kg, ip after 4 hrs; assay type: functional, organism-based; design: dose 10 mg/kg
[36] = system: Mus musculus; experiment: Activity in CD1 mouse assessed as hind limb splay at 100 mg/kg, ip after 4 hrs; assay type: functional, organism-based; design: dose 100 mg/kg; details: Hindlimb
[37] = system: Mus musculus; experiment: Activity in CD1 mouse assessed as convulsions at 100 mg/kg, ip after 4 hrs; assay type: functional, organism-based; design: dose 100 mg/kg
[38] = system: Mus musculus; experiment: Activity in CD1 mouse assessed as ataxia at 100 mg/kg, ip after 4 hrs; assay type: functional, organism-based; design: dose 100 mg/kg
[39] = system: Mus musculus; experiment: Activity in CD1 mouse assessed as hypoactivity at 100 mg/kg, ip after 4 hrs; assay type: functional, organism-based; design: dose 100 mg/kg
[40] = target: Sodium-dependent noradrenaline transporter (Homo sapiens, UniProt P23975); experiment: Displacement of [3H]nisoxetine from NET
[41] = system: Mus musculus; experiment: Locomotor activity in CD1 mouse assessed as stimulation at 3 mg/kg, ip after 1 hr relative to control; assay type: functional; details: route intraperitoneal
[42] = system: Mus musculus; experiment: Locomotor activity in CD1 mouse assessed as stimulation at 3 mg/kg, ip after 2 hrs relative to control; assay type: functional; details: route intraperitoneal
[43] = system: Mus musculus; experiment: Locomotor activity in CD1 mouse assessed as stimulation at 3 mg/kg, ip after 3 hrs relative to control; assay type: functional; details: route intraperitoneal
[44] = system: Mus musculus; experiment: Locomotor activity in CD1 mouse assessed as stimulation at 3 mg/kg, ip after 4 hrs relative to control; assay type: functional; details: route intraperitoneal
[45] = system: Mus musculus; experiment: Locomotor activity in CD1 mouse assessed as stimulation at 10 mg/kg, ip after 1 hr relative to control; assay type: functional; details: route intraperitoneal
[46] = system: Mus musculus; experiment: Locomotor activity in CD1 mouse assessed as stimulation at 10 mg/kg, ip after 2 hrs relative to control; assay type: functional; details: route intraperitoneal
[47] = system: Mus musculus; experiment: Locomotor activity in CD1 mouse assessed as stimulation at 10 mg/kg, ip after 3 hrs relative to control; assay type: functional; details: route intraperitoneal
[48] = system: Mus musculus; experiment: Locomotor activity in CD1 mouse assessed as stimulation at 10 mg/kg, ip after 4 hrs relative to control; assay type: functional; details: route intraperitoneal
[49] = system: Mus musculus; experiment: Locomotor activity in CD1 mouse assessed as stimulation at 30 mg/kg, ip after 1 hr relative to control; assay type: functional; details: route intraperitoneal
[50] = system: Mus musculus; experiment: Locomotor activity in CD1 mouse assessed as stimulation at 30 mg/kg, ip after 2 hrs relative to control; assay type: functional; details: route intraperitoneal
[51] = system: Mus musculus; experiment: Locomotor activity in CD1 mouse assessed as stimulation at 30 mg/kg, ip after 3 hrs relative to control; assay type: functional; details: route intraperitoneal
[52] = system: Mus musculus; experiment: Locomotor activity in CD1 mouse assessed as stimulation at 30 mg/kg, ip after 4 hrs relative to control; assay type: functional; details: route intraperitoneal
[53] = system: Rattus norvegicus; experiment: Drug discrimination effect in CD Albino rat assessed as percent of rat choosing cocaine lever at 1 mg/kg, ip; assay type: functional; details: route intraperitoneal
[54] = system: Rattus norvegicus; experiment: Drug discrimination effect in CD Albino rat assessed as percent of rat choosing cocaine lever at 1.7 mg/kg, ip; assay type: functional; details: route intraperitoneal
[55] = system: Mus musculus; experiment: Activity in CD1 mouse assessed as hyperactivity at 10 mg/kg, ip after 4 hrs; assay type: functional, organism-based; design: dose 10 mg/kg
[56] = system: Mus musculus; experiment: Activity in CD1 mouse assessed as stimulation at 1 mg/kg, ip after 4 hrs; assay type: functional, organism-based; design: dose 1 mg/kg

Sequence of Sodium-dependent dopamine transporter (Q01959 whole entry): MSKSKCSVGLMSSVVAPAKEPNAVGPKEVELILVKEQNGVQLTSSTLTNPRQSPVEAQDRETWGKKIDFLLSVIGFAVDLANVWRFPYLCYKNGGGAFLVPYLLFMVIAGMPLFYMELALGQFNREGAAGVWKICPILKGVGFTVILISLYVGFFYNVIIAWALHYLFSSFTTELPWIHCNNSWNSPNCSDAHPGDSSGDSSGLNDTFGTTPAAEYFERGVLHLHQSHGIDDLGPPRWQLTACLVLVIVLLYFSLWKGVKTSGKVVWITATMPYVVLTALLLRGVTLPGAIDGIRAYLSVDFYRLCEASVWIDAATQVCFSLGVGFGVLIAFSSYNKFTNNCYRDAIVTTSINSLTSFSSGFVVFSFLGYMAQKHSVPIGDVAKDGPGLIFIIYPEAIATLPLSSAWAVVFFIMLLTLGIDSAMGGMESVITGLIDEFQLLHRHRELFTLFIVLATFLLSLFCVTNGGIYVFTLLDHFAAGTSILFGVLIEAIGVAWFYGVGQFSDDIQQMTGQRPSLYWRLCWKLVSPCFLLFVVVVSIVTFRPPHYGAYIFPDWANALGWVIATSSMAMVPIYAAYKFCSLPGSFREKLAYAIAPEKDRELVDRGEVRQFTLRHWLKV
Sequence of Sodium-dependent serotonin transporter (P31645 whole entry): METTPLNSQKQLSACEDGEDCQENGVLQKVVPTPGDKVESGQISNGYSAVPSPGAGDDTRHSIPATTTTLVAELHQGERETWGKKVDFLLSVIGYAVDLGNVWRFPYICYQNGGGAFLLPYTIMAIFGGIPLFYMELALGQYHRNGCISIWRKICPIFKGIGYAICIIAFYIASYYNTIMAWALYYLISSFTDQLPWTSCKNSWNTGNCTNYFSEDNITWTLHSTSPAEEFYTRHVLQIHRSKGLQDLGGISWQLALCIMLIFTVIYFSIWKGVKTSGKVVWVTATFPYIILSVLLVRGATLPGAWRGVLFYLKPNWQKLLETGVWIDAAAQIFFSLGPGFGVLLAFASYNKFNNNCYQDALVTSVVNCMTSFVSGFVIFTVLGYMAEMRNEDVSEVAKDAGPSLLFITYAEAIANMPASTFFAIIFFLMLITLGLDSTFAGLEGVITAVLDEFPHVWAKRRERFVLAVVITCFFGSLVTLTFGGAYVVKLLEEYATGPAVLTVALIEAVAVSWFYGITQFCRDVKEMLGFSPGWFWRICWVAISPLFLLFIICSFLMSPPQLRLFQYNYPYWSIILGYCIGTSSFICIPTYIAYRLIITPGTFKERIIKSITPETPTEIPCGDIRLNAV
Sequence of Sodium-dependent noradrenaline transporter (P23975 whole entry): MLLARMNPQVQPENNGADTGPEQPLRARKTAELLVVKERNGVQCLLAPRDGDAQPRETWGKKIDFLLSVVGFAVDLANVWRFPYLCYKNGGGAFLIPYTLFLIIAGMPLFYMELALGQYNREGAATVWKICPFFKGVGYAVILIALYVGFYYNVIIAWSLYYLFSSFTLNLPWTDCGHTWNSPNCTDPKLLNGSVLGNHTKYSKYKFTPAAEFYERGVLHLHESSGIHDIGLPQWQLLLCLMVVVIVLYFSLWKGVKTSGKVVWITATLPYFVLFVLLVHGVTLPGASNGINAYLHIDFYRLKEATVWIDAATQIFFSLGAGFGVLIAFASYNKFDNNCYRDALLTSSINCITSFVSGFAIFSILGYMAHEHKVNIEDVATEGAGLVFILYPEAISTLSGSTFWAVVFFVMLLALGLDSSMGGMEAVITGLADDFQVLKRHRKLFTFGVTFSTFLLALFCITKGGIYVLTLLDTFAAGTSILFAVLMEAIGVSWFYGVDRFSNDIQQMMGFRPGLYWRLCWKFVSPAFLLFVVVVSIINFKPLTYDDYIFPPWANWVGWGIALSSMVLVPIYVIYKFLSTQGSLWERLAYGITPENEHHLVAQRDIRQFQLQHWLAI

Work on COC(=O)[C@@H]1C2CCC(C[C@@H]1c1ccc(Br)cc1)N2C (stereo partly specified) yielded an Activity [1] of 259%, an Activity [2] of 598% and an Activity [3] of 869%. It also gave an Activity [4] of 834%, an Activity [5] of 258% and an Activity [6] of 35%. It also gave an Activity [7] of 302%, an Activity [8] of 656% and an Activity [9] of -38%. It also gave an Activity [10] of 29%, an Activity [11] of 81% and an Activity [12] of 116%. For the same molecule, the Activity [13] was -30%, the Activity [14] was -39% and the Activity [15] was 9%. The Activity [16] was -43%, the ED50 [17] was 0.17 mg/kg and the Activity [18] was 50%. The Activity [19] was 100%, the Activity [20] was “Active” and the Activity [21] was “Active”. For the same molecule, the Activity [22] was “Active”, the Activity [23] was “Active” and the Activity [24] was “Active”. The Activity [25] was “Active”, the IC50 [26] was 1.7 nM and the ED50 [27] was 0.1 mg/kg. The Activity [28] was 14%, the IC50 [29] was 10.6 nM and the Ki [29] was 0.96 nM.
Molecule COC(=O)[C@H]1C2CCC(C[C@@H]1c1ccc(C)cc1)N2C (stereo partly specified) has an Activity [5] of -42%, an Activity [6] of -76% and an Activity [7] of 39%. It also gave an Activity [8] of -68%, an ED50 [17] of 7.11 mg/kg and an Activity [30] of 13%. It also gave an Activity [31] of 43%, an Activity [32] of 71% and an Activity [33] of 71%. The Activity [34] was 100%, the Activity [35] was “Active” and the Activity [25] was “Active”. For the same molecule, the Activity [36] was “Active”, the Activity [37] was “Active” and the Activity [38] was “Active”. For the same molecule, the Activity [39] was “Active”, the IC50 [26] was 207 nM and the IC50 [40] was 2230 nM. For the same molecule, the Ki [40] was 1120 nM, the Activity [41] was 20% and the Activity [42] was 10%. The Activity [43] was -1%, the Activity [44] was 39% and the Activity [45] was 24%. It also gave an Activity [46] of -11%, an Activity [47] of 6% and an Activity [48] of 55%. It also gave an Activity [49] of -23%, an Activity [50] of 7% and an Activity [51] of 17%. It also gave an Activity [52] of 42%.
COC(=O)[C@@H]1C2CCC(C[C@H]1c1ccc(Br)cc1)N2C (stereo partly specified) gave an Activity [5] of 35%, an Activity [6] of -26% and an Activity [7] of -56%. The Activity [8] was -12%, the ED50 [17] was 2.98 mg/kg and the Activity [53] was 13%. It also gave an Activity [54] of 13%, an Activity [30] of 50% and an Activity [31] of 88%. The Activity [55] was “Active”, the Activity [22] was “Active” and the Activity [24] was “Active”. For the same molecule, the Activity [25] was “Active”, the IC50 [26] was 1.7 nM and the ED50 [27] was 6.6 mg/kg. It also gave an Activity [41] of 60%, an Activity [42] of 88% and an Activity [43] of 100%. The Activity [44] was 109%, the Activity [45] was 353% and the Activity [46] was 457%. The Activity [47] was 686%, the Activity [48] was 781% and the Activity [49] was 518%. It also gave an Activity [50] of 861%, an Activity [51] of 1275% and an Activity [52] of 883%. For the same molecule, the Activity [56] was “Active”, the IC50 [29] was 84 nM and the Ki [29] was 20.6 nM.
